# Test system: MV-4-11 cells
# Experiment: Gene expression microarray analysis (Affymetrix PrimeView) and GSEA
# Format: cell-based, human
# Set-up: RFU PODN (11730768_x_at) / Fold change /veh PODN (11730768_x_at) / RFU LINC00158 (11744669_a_at) / Fold change /veh LINC00158 (11744669_a_at) / RFU DUSP10 (11751237_a_at) / Fold change /veh DUSP10 (11751237_a_at) / RFU ID3 (11757404_x_at) / Fold change /veh ID3 (11757404_x_at) / RFU PLEKHG5 (11737974_s_at) / Fold change /veh PLEKHG5 (11737974_s_at) / RFU LRRC4B (11730491_at) / Fold change /veh LRRC4B (11730491_at) / RFU GIMAP4 (11747438_a_at) / Fold change /veh GIMAP4 (11747438_a_at) / RFU KRT8 (11758183_x_at) / Fold change /veh KRT8 (11758183_x_at) / RFU CNN1 (11734310_a_at) / Fold change /veh CNN1 (11734310_a_at) / RFU VPS37D (11726825_at) / Fold change /veh VPS37D (11726825_at) / RFU C10orf10 (11716522_x_at) / Fold change /veh C10orf10 (11716522_x_at) / RFU KIR2DL2 /// KIR2DL4 /// KIR2DL5A /// KIR2DL5B /// KIR2DS1 /// KIR2DS2 /// KIR2DS3 /// KIR2DS4 /// KIR3DL3 /// KIR3DL3 /// KIR3DS1 (11738374_at) / Fold change /veh KIR2DL2 /// KIR2DL4 /// KIR2DL5A /// KIR2DL5B /// KIR2DS1 /// KIR2DS2 /// KIR2DS3 /// KIR2DS4 /// KIR3DL3 /// KIR3DL3 /// KIR3DS1 (11738374_at) / RFU C1QL1 (11718748_at) / Fold change /veh C1QL1 (11718748_at) / RFU TMPRSS4 (11747572_a_at) / Fold change /veh TMPRSS4 (11747572_a_at) / RFU HAMP (11756126_x_at) / Fold change /veh HAMP (11756126_x_at) / RFU RNFT2 (11725882_a_at) / Fold change /veh RNFT2 (11725882_a_at) / RFU NR4A2 (11747474_a_at) / Fold change /veh NR4A2 (11747474_a_at) / RFU ABCC12 (11746883_a_at) / Fold change /veh ABCC12 (11746883_a_at) / RFU TMEM136 (11760407_x_at) / Fold change /veh TMEM136 (11760407_x_at) / RFU CLDN22 /// WWC2 (11732394_at) / Fold change /veh CLDN22 /// WWC2 (11732394_at) / RFU HLA-DPB1 (11760878_x_at) / Fold change /veh HLA-DPB1 (11760878_x_at) / RFU SPINT1 (11716480_a_at) / Fold change /veh SPINT1 (11716480_a_at) / RFU GAP43 (11754022_s_at) / Fold change /veh GAP43 (11754022_s_at) / RFU A4GNT (11735810_at) / Fold change /veh A4GNT (11735810_at) / RFU PRB3 (11715151_x_at) / Fold change /veh PRB3 (11715151_x_at) / RFU TUBB4B (11761932_at) / Fold change /veh TUBB4B (11761932_at) / RFU CAPN14 (11732068_a_at) / Fold change /veh CAPN14 (11732068_a_at) / RFU TMCC2 (11721928_a_at) / Fold change /veh TMCC2 (11721928_a_at) / RFU IRGQ (11745062_a_at) / Fold change /veh IRGQ (11745062_a_at) / RFU FAM174B (11720279_a_at) / Fold change /veh FAM174B (11720279_a_at) / RFU TMPRSS4 (11748680_a_at) / Fold change /veh TMPRSS4 (11748680_a_at) / RFU FAM212B (11763350_a_at) / Fold change /veh FAM212B (11763350_a_at) / RFU PLEKHG5 (11743358_a_at) / Fold change /veh PLEKHG5 (11743358_a_at) / RFU ZSCAN30 (11745921_a_at) / Fold change /veh ZSCAN30 (11745921_a_at) / RFU CMKLR1 (11741424_a_at) / Fold change /veh CMKLR1 (11741424_a_at) / RFU LOC101060620 /// MAPK8IP1 (11723275_at) / Fold change /veh LOC101060620 /// MAPK8IP1 (11723275_at) / RFU SPTSSB (11747773_x_at) / Fold change /veh SPTSSB (11747773_x_at) / RFU PRSS12 (11739890_at) / Fold change /veh PRSS12 (11739890_at) / RFU BIN1 (11741810_x_at) / Fold change /veh BIN1 (11741810_x_at) / RFU WNT11 (11732464_a_at) / Fold change /veh WNT11 (11732464_a_at) / RFU C10orf10 (11716521_a_at) / Fold change /veh C10orf10 (11716521_a_at) / RFU C5orf56 (11738089_at) / Fold change /veh C5orf56 (11738089_at) / RFU CYB561 (11721691_x_at) / Fold change /veh CYB561 (11721691_x_at) / RFU ANKRD19P (11752326_a_at) / Fold change /veh ANKRD19P (11752326_a_at) / RFU OR2T12 /// OR2T33 /// OR2T8 (11738714_s_at) / Fold change /veh OR2T12 /// OR2T33 /// OR2T8 (11738714_s_at) / RFU VCAN (11748164_a_at) / Fold change /veh VCAN (11748164_a_at) / RFU JSRP1 (11732532_at) / Fold change /veh JSRP1 (11732532_at) / RFU KRTAP10-11 (11738290_x_at) / Fold change /veh KRTAP10-11 (11738290_x_at) / RFU MYO3A (11730013_a_at) / Fold change /veh MYO3A (11730013_a_at) / RFU EBF3 (11725865_a_at) / Fold change /veh EBF3 (11725865_a_at) / RFU CAMK2N1 (11719241_x_at) / Fold change /veh CAMK2N1 (11719241_x_at) / RFU C5orf56 (11738088_a_at) / Fold change /veh C5orf56 (11738088_a_at) / RFU OLFML3 (11715873_a_at) / Fold change /veh OLFML3 (11715873_a_at) / RFU LOC100653217 /// NTM (11731650_a_at) / Fold change /veh LOC100653217 /// NTM (11731650_a_at) / RFU MAPK11 (11762145_a_at) / Fold change /veh MAPK11 (11762145_a_at) / RFU FIZ1 (11724087_x_at) / Fold change /veh FIZ1 (11724087_x_at) / RFU OASL (11726364_x_at) / Fold change /veh OASL (11726364_x_at) / RFU SOX15 (11748057_x_at) / Fold change /veh SOX15 (11748057_x_at) / RFU CD79A (11719716_a_at) / Fold change /veh CD79A (11719716_a_at) / RFU HIST1H1D (11736915_at) / Fold change /veh HIST1H1D (11736915_at) / RFU CASKIN2 (11723855_a_at) / Fold change /veh CASKIN2 (11723855_a_at) / RFU LOC730098 (11760151_x_at) / Fold change /veh LOC730098 (11760151_x_at) / RFU OR4N2 (11742367_at) / Fold change /veh OR4N2 (11742367_at) / RFU PRRT2 (11749266_a_at) / Fold change /veh PRRT2 (11749266_a_at) / RFU SNX32 (11753110_a_at) / Fold change /veh SNX32 (11753110_a_at) / RFU CDHR5 (11726645_a_at) / Fold change /veh CDHR5 (11726645_a_at) / RFU RCAN1 (11760418_a_at) / Fold change /veh RCAN1 (11760418_a_at) / RFU FAM167A (11723789_a_at) / Fold change /veh FAM167A (11723789_a_at) / RFU FAM26E (11764081_at) / Fold change /veh FAM26E (11764081_at) / RFU ISYNA1 (11749810_s_at) / Fold change /veh ISYNA1 (11749810_s_at) / RFU ACY1 (11761880_at) / Fold change /veh ACY1 (11761880_at) / RFU 11764098_at / Fold change /veh 11764098_at / RFU SAMD14 (11745864_x_at) / Fold change /veh SAMD14 (11745864_x_at) / RFU NPB (11741838_a_at) / Fold change /veh NPB (11741838_a_at) / RFU TMPRSS6 (11731388_a_at) / Fold change /veh TMPRSS6 (11731388_a_at) / RFU KRTAP10-2 (11738614_at) / Fold change /veh KRTAP10-2 (11738614_at) / RFU ARHGAP8 /// PRR5-ARHGAP8 (11727945_x_at) / Fold change /veh ARHGAP8 /// PRR5-ARHGAP8 (11727945_x_at) / RFU KRTAP5-7 /// NADSYN1 (11734609_at) / Fold change /veh KRTAP5-7 /// NADSYN1 (11734609_at) / RFU RASL12 (11751679_a_at) / Fold change /veh RASL12 (11751679_a_at) / RFU CDKN2B (11736163_a_at) / Fold change /veh CDKN2B (11736163_a_at) / RFU PRF1 (11729649_at) / Fold change /veh PRF1 (11729649_at) / RFU, ZNF638 /// ZNF638-IT1 / Fold change vs veh, ZNF638 /// ZNF638-IT1 / RFU, PANK3 / Fold change vs veh, PANK3 / RFU, SH3YL1 / Fold change vs veh, SH3YL1 / RFU, ZEB2 / Fold change vs veh, ZEB2 / RFU, NRIP1 / Fold change vs veh, NRIP1 / RFU, PTTG1IP / Fold change vs veh, PTTG1IP / RFU, CAPN2 / Fold change vs veh, CAPN2 / RFU, MED14 / Fold change vs veh, MED14 / RFU, SNORA58 / Fold change vs veh, SNORA58 / RFU, C1orf63 / Fold change vs veh, C1orf63 / RFU, LRRFIP1 / Fold change vs veh, LRRFIP1 / RFU, NDUFAF7 / Fold change vs veh, NDUFAF7 / RFU, SLC12A2 / Fold change vs veh, SLC12A2 / RFU, IBTK / Fold change vs veh, IBTK / RFU, ESF1 / Fold change vs veh, ESF1 / Fold change vs veh, TMEM50B / RFU, TAOK1 / Fold change vs veh, TAOK1 / RFU, ACBD3 / Fold change vs veh, ACBD3 / RFU, TMA16 / Fold change vs veh, TMA16 / RFU, RWDD3 / Fold change vs veh, RWDD3 / RFU, BCAT1 / Fold change vs veh, BCAT1 / RFU, EDEM3 / Fold change vs veh, EDEM3 / RFU, TMEM33 / Fold change vs veh, TMEM33 / RFU, WDR75 / Fold change vs veh, WDR75 / RFU, AHCTF1 / Fold change vs veh, AHCTF1 / RFU, TFRC / Fold change vs veh, TFRC / RFU, ZDHHC17 / Fold change vs veh, ZDHHC17 / RFU, NOM1 / Fold change vs veh, NOM1 / RFU, ARL8B / Fold change vs veh, ARL8B / RFU, ZBTB11 / Fold change vs veh, ZBTB11 / RFU, TAMM41 / Fold change vs veh, TAMM41 / RFU, KIAA1704 /// LOC100996395 / Fold change vs veh, KIAA1704 /// LOC100996395 / RFU, ING1 / Fold change vs veh, ING1 / RFU, TRMT61B / Fold change vs veh, TRMT61B / RFU, FUBP3 / Fold change vs veh, FUBP3 / RFU, TP53 / Fold change vs veh, TP53 / RFU, TNKS2 / Fold change vs veh, TNKS2 / RFU, ZFP14 / Fold change vs veh, ZFP14 / RFU, ACTR2 / Fold change vs veh, ACTR2 / RFU, PPP3R1 / Fold change vs veh, PPP3R1 / RFU, PIK3R1 / Fold change vs veh, PIK3R1 / RFU, HNRNPA1 / Fold change vs veh, HNRNPA1 / RFU, RNF170 / Fold change vs veh, RNF170 / RFU, ZNF28 / Fold change vs veh, ZNF28 / RFU, RNGTT / Fold change vs veh, RNGTT / RFU, OGT / Fold change vs veh, OGT / RFU, BRD1 / Fold change vs veh, BRD1 / RFU, MARS / Fold change vs veh, MARS / RFU, ZNF655 / Fold change vs veh, ZNF655 / RFU, FAHD1 / Fold change vs veh, FAHD1 / RFU, BDP1 / Fold change vs veh, BDP1 / RFU, LRRCC1 / Fold change vs veh, LRRCC1 / RFU, ARID1A / Fold change vs veh, ARID1A / RFU, ZNF146 / Fold change vs veh, ZNF146 / RFU, ZNF330 / Fold change vs veh, ZNF330 / RFU, GPN3 / Fold change vs veh, GPN3 / RFU, C9orf123 / Fold change vs veh, C9orf123 / RFU, N4BP2L2 / Fold change vs veh, N4BP2L2 / RFU, ARFIP1 / Fold change vs veh, ARFIP1 / RFU, FAM179B / Fold change vs veh, FAM179B / RFU, BCL10 / Fold change vs veh, BCL10 / RFU, UHRF1BP1L / Fold change vs veh, UHRF1BP1L / RFU, BET1 / Fold change vs veh, BET1 / RFU, CNOT2 / Fold change vs veh, CNOT2 / RFU, ZNF268 / Fold change vs veh, ZNF268 / Fold change vs veh, ZNF507 / RFU, DGCR2 / Fold change vs veh, DGCR2 / RFU, WDSUB1 / Fold change vs veh, WDSUB1 / Fold change vs veh, HSP90B1 /// MIR3652 / RFU, ADSS / Fold change vs veh, ADSS / RFU, GK / Fold change vs veh, GK / RFU, ZNF148 / Fold change vs veh, ZNF148 / RFU, TAF9 / Fold change vs veh, TAF9 / RFU, SLC1A5 / Fold change vs veh, SLC1A5 / RFU, SLMO2 / Fold change vs veh, SLMO2 / RFU, ABCC4 / Fold change vs veh, ABCC4 / RFU, LOC101060439 /// RAP1B / Fold change vs veh, LOC101060439 /// RAP1B / RFU, RFX7 / Fold change vs veh, RFX7 / RFU, GTPBP10 / Fold change vs veh, GTPBP10 / RFU, CNEP1R1 / Fold change vs veh, CNEP1R1 / RFU, BIVM-ERCC5 /// ERCC5 / Fold change vs veh, BIVM-ERCC5 /// ERCC5 / RFU, ILF3 / Fold change vs veh, ILF3 / RFU 11762660_at / Fold change /veh 11762660_at / RFU VCAN (11757783_s_at) / Fold change /veh VCAN (11757783_s_at) / RFU DDX43 (11728927_at) / Fold change /veh DDX43 (11728927_at) / RFU KRT8 (11758188_x_at) / Fold change /veh KRT8 (11758188_x_at) / RFU NKD1 (11759106_at) / Fold change /veh NKD1 (11759106_at) / RFU SRD5A1 (11742802_a_at) / Fold change /veh SRD5A1 (11742802_a_at) / RFU TPSAB1 /// TPSB2 (11721975_s_at) / Fold change /veh TPSAB1 /// TPSB2 (11721975_s_at) / RFU GSTM3 (11746129_a_at) / Fold change /veh GSTM3 (11746129_a_at) / RFU IL23R (11737362_x_at) / Fold change /veh IL23R (11737362_x_at) / RFU TMEM51 (11727254_a_at) / Fold change /veh TMEM51 (11727254_a_at) / RFU PIWIL2 (11732686_x_at) / Fold change /veh PIWIL2 (11732686_x_at) / RFU ORM1 (11744905_x_at) / Fold change /veh ORM1 (11744905_x_at) / RFU CCDC152 (11743942_at) / Fold change /veh CCDC152 (11743942_at) / RFU ECM1 (11717891_a_at) / Fold change /veh ECM1 (11717891_a_at) / RFU IL23R (11748794_a_at) / Fold change /veh IL23R (11748794_a_at) / RFU TNFAIP8L3 (11732012_x_at) / Fold change /veh TNFAIP8L3 (11732012_x_at) / RFU MBOAT4 (11741988_at) / Fold change /veh MBOAT4 (11741988_at) / RFU 11764193_at / Fold change /veh 11764193_at / RFU TMEM53 (11763286_at) / Fold change /veh TMEM53 (11763286_at) / RFU MAGEB2 (11727129_at) / Fold change /veh MAGEB2 (11727129_at) / RFU TMEM200A (11744735_a_at) / Fold change /veh TMEM200A (11744735_a_at) / RFU CCDC152 (11751479_a_at) / Fold change /veh CCDC152 (11751479_a_at) / RFU FAM211A (11726209_a_at) / Fold change /veh FAM211A (11726209_a_at) / RFU RGS16 (11746705_a_at) / Fold change /veh RGS16 (11746705_a_at) / RFU VCAN (11755009_s_at) / Fold change /veh VCAN (11755009_s_at) / RFU RHOB (11743442_s_at) / Fold change /veh RHOB (11743442_s_at) / RFU RGS16 (11720943_a_at) / Fold change /veh RGS16 (11720943_a_at) / RFU RGS16 (11720944_at) / Fold change /veh RGS16 (11720944_at) / RFU, VPS4B / Fold change vs veh, VPS4B / RFU, CREB1 / Fold change vs veh, CREB1 / RFU, DNAJC13 / Fold change vs veh, DNAJC13 / RFU, GNAQ / Fold change vs veh, GNAQ / RFU, CDK5R1 / Fold change vs veh, CDK5R1 / RFU, ZRANB3 / Fold change vs veh, ZRANB3 / RFU, CUL4A / Fold change vs veh, CUL4A / RFU, CCNY / Fold change vs veh, CCNY / RFU, UFL1 / Fold change vs veh, UFL1 / RFU, COG3 / Fold change vs veh, COG3 / RFU, DIAPH2 / Fold change vs veh, DIAPH2 / RFU, SKA2 / Fold change vs veh, SKA2 / RFU, AFF3 / Fold change vs veh, AFF3 / RFU, LMF1 / Fold change vs veh, LMF1 / RFU, IPO11 / Fold change vs veh, IPO11 / RFU, DFFB / Fold change vs veh, DFFB / RFU, FOXP1 / Fold change vs veh, FOXP1 / RFU, CARD8 / Fold change vs veh, CARD8 / RFU, STRN3 / Fold change vs veh, STRN3 / RFU, ADK / Fold change vs veh, ADK / RFU, RASSF2 / Fold change vs veh, RASSF2 / RFU, WIPF1 / Fold change vs veh, WIPF1 / RFU, LARP1B / Fold change vs veh, LARP1B / RFU, RASA1 / Fold change vs veh, RASA1 / RFU, RB1 / Fold change vs veh, RB1 / RFU, PPFIA1 / Fold change vs veh, PPFIA1 / RFU, MAT2A / Fold change vs veh, MAT2A / RFU, CCT5 / Fold change vs veh, CCT5 / RFU, WDR92 / Fold change vs veh, WDR92 / RFU, CUX1 / Fold change vs veh, CUX1 / RFU, TTC7A / Fold change vs veh, TTC7A / RFU, TMEM135 / Fold change vs veh, TMEM135 / RFU, DEPTOR / Fold change vs veh, DEPTOR / RFU, CPM / Fold change vs veh, CPM / RFU, DNAJB6 / Fold change vs veh, DNAJB6 / RFU, CACNA2D3 / Fold change vs veh, CACNA2D3 / RFU, DTX4 / Fold change vs veh, DTX4 / RFU, TFCP2 / Fold change vs veh, TFCP2 / RFU, GMCL1 /// GMCL1P1 / Fold change vs veh, GMCL1 /// GMCL1P1 / RFU, AEBP2 / Fold change vs veh, AEBP2 / RFU, SNHG1 /// SNORD22 /// SNORD25 /// SNORD26 /// SNORD27 /// SNORD28 /// SNORD29 /// SNORD31 / Fold change vs veh, SNHG1 /// SNORD22 /// SNORD25 /// SNORD26 /// SNORD27 /// SNORD28 /// SNORD29 /// SNORD31 / Fold change (Aza/veh), C12orf56 (ProbeSet 11735607_a_at) / Fold change (ACY-1035/veh), C12orf56 (ProbeSet 11735607_a_at) / Fold change (Aza/veh), FGFR1OP (ProbeSet 11751329_s_at) / Fold change (ACY-1035/veh), FGFR1OP (ProbeSet 11751329_s_at) / Fold change (Aza/veh), VPS36 (ProbeSet 11739960_a_at) / Fold change (ACY-1035/veh), VPS36 (ProbeSet 11739960_a_at) / RFU SYPL1 (11715823_x_at) / Fold change /veh SYPL1 (11715823_x_at) / RFU IGFBP7 (11715501_s_at) / Fold change /veh IGFBP7 (11715501_s_at) / RFU REEP3 (11722064_at) / Fold change /veh REEP3 (11722064_at) / RFU IGLL1 (11728026_x_at) / Fold change /veh IGLL1 (11728026_x_at): dose or concentration left out as unconfirmed
# Details: ProbeSet 11715478_a_at; LIST B
smiles,measurement,value
Nc1ncn([C@@H]2O[C@H](CO)[C@@H](O)[C@H]2O)c(=O)n1 [azacitidine],"Fold change vs veh, TFRC",0.85

# — PMC5218480 (PLoS ONE, 2017)
